Experimental data reported in patent publication US8076485B2, “Methylphenidate derivatives and uses of them” (priority 2005, dated 2011).

Experiments:
Type in all cases: cell-based, human
[1] = test system: IL-13; assay: IL-13 release by PBL (ELISA); conditions: for IL-13 release induced by PHA: Example 2, GR467 PBL, 15 μg/ml Cpd II, 15 μg/ml MP, 10 μM Dex, PHA 2 μg/ml, 96 hours, FIG. 3
Protocol: (§1) After this incubation, PHA was added to give a final concentration of 2 μg/ml, and the cells were incubated for an additional 96 hours at 37° C., 5% CO2. All cultures were performed in triplicate. Cells were then removed by centrifugation at 1000 rpm for 10 minutes, and the culture medium collected.
(§2) Release of IL-13 and interferon gamma (IFNγ) into the culture medium was measured by ELISA. To perform the ELISA, matched pairs of antibodies against human IL-13 and IFNγ were purchased from Pierce Biotechnology and Biosource, respectively. ELISA strip well plates were coated with 10 μg/ml of antibody (in phosphate-buffered saline (PBS)) to IL-13 and 4 μg/ml of antibody to IFNγ (in PBS) overnight at room temperature. The plates were then blocked using a 4% BSA solution in PBS for one hour, followed by the addition of 50 μl of experimental culture medium per well in duplicate. The plates were incubated at room temperature for one hour and then washed using 50 mM Tris pH 8.0 with 0.1% Tween 20. Then, solutions of 400 ng/ml biotinylated second antibody to IL-13 and 500 ng/ml biotinylated second antibody to IFNγ were made in blocking buffer, and 100 μl were added per well. The plates were incubated for 1 hour and washed again. A 1:8000 dilution of Strepavidin HRP (Pierce Biotechnology) conjugate was made in blocking buffer, and 100 μl were added to the wells and incubation continued for 30 minutes. A final wash step was performed, after which 100 μl Pierce Biotechnology TMB substrate were added to each well. Color was developed for 30 minutes and stopped by adding 100 μl 0.18 NH2SO4. OD was determined using microplate reader with a 450 nm filter.
After this incubation, PHA was added to give a final concentration of 5 μg/ml, and the cells were incubated for an additional 72 hours at 37° C., 5% CO2. All cultures were performed in triplicate. Cells were then removed by centrifugation at 1000 rpm for 10 minutes.
The supernatants were collected, and the concentrations of IL-13 and tumor necrosis factor alpha (TNFα) in the supernatants were measured by ELISA. The IL-13 ELISA was performed as described in Example 2.

[2] = test system: peripheral blood lymphocytes (PBL); assay: PBL proliferation assay (Promega cell titer, OD 530 nm); conditions: for proliferation of PBL stimulated with PHA (OD at 530 nm): Example 1, donor GR283; for proliferation of PBL, both unstimulated and stimulated with PHA (OD at 530 nm): Dex 10 μM
Protocol: Whole blood was drawn from GR283, a human volunteer with known allergies, into a glass vacutainer tube containing no anticoagulant. This blood was allowed to clot, and the serum was removed by centrifugation and then heat inactivated by placing it in a water bath at 56° C. for 30 minutes. Whole blood from GR283 was also drawn into a glass vacutainer tube containing heparin and used for peripheral blood lymphocytes (PBL) isolation as follows. Whole blood was layered over room temperature Histopaque 1077 solution and centrifuged at 2000 rpm for 15 minutes at room temperature. Cells at the plasma-Histopaque interface were then removed and washed with culture medium (IMDM medium with 10% heat-inactivated GR283 serum plus 1% penicillin/streptomycin) at 37° C.
Then, GR283's PBL in culture medium were added to the wells to give a final concentration of 150,000 cells per well, and the plates were incubated at 37° C., 5% CO2 for 24 hours. After this incubation, phytohemagglutinin (PHA) in culture medium was added to give final concentrations of 2 μg/ml, 5 μg/ml or 20 μg/ml, final total volume of 200 μl/well, and the cells were incubated for an additional 72 hours at 37° C., 5% CO2. All cultures were performed in triplicate.
Cell proliferation was assayed by adding 20 μl of Promega cell titer solution to each well and incubating the plate for an additional 4 hours. Promega cell titer solution is a solution containing a tetrazolium dye that is reduced by living cells to a formazan dye, and this reduction is proportional to the number of living cells present in the well. After the 4-hour incubation, the optical density (OD) at 530 nm of each well was measured. The OD at 530 nm for blank wells containing no cells was subtracted from the OD of the experimental wells.
Then, GR467's PBL in culture medium were added to the wells to give a final concentration of 150,000 cells per well, and the plates were incubated at 37° C., 5% CO2 for 24 hours. After this incubation, PHA was added to give a final concentration of 2 μg/ml, final total volume of 200 μl/well, and the cells were incubated for an additional 72 hours at 37° C., 5% CO2. All cultures were performed in triplicate.
Then, GR191's PBL in culture medium were added to the wells to give a final concentration of 150,000 cells per well, and the plates were incubated at 37° C., 5% CO2 for 24 hours. After this incubation, PHA was added to give final concentrations of 2 μg/ml and 5 μg/ml, final total volume of 200 μl/well, and the cells were incubated for an additional 72 hours at 37° C., 5% CO2. All cultures were performed in triplicate.

[3] = test system: IFNγ; assay: IFNγ release by PBL (ELISA); conditions: Example 2, GR467 PBL, 15 μg/ml Cpd II, 15 μg/ml MP, 10 μM Dex, FIG. 4; for IFNγ release, cells stimulated with PHA: PHA 2 μg/ml, 96 hours
Protocol: as §1, §2

[4] = test system: IL-8; assay: IL-8 release by TNFα-stimulated HUVECs (ELISA); conditions: for IL-8 release stimulated by TNFα: HUVECs, 10 ng/ml TNFα, Cpd II 1-30 μg/ml, MP 15 μg/ml, Dex 10 μM, LY 294002 10 μM
Protocol: Passage 4 HUVECs, human source lot number 8710 (obtained from ATCC), were put into the wells of a 24-well tissue culture plate at 5,000 cells/well in EGM-2 medium and cultured for 72 hours at 37° C. and 5% CO2. […] After incubation for 1 hour at 37° C. and 5% CO2, TNFα (Pierce) was added to give a final concentration of 10 ng/ml, and the cells were incubated for an additional 18 hours at 37° C. and 5% CO2. After this incubation, the supernatants were collected, and the amount of IL-8 in the supernatants determined by ELISA as described in Example 4.

[5] = Cpd II and MP 5, 15, 50 μg/ml, Dex 10 μg/ml, PHA 2, 5, 20 μg/ml, FIGS. 1A-C
[6] = Example 2, donor GR467, Cpd II 5, 15, 25 μg/ml, MP 15 μg/ml, PHA 2 μg/ml, FIG. 2
[7] = Example 3, donor GR191, Cpd II 5, 15, 25, 50 μg/ml, MP 50 μg/ml, PHA 2 and 5 μg/ml, FIGS. 5A-B
[8] = Homo sapiens, HUVEC, 18 h, read-out: % inhibition (IL-8)

Compound | IL-13 release induced by PHA [1] | release of IL-13 from PHA-stimulated PBL ([1]; Example 3, GR191 PBL, Cpd II 15 and 50 μg/ml, Dex 10 μM, PHA 5 μg/ml, 72 hours, FIG. 6) | proliferation of PBL stimulated with PHA (OD at 530 nm) [2, 5] | proliferation of PBL, both unstimulated and stimulated with PHA (OD at 530 nm) [2, 6] | proliferation of PBL, both unstimulated and stimulated with PHA (OD at 530 nm) [2, 7] | IFNγ release, unstimulated cells [3] | IFNγ release, cells stimulated with PHA [3] | IL-8 release stimulated by TNFα [4] | inhibition at 1 µg/mL [4, 8] | inhibition at 5 µg/mL [4, 8] | inhibition at 10 µg/mL [4, 8] | inhibition at 15 µg/mL [4, 8] | inhibition at 30 µg/mL [4, 8] | IL-13 release induced by PHA ([1]; listed as Methylphenidate) | proliferation of PBL stimulated with PHA (OD at 530 nm) ([2]; highest MP dose (50 μg/ml) and lowest PHA dose (2 μg/ml)) | IFNγ release, cells stimulated with PHA ([3]; listed as Methylphenidate)
COC(=O)C(c1ccc(-c2ccccc2)cc1)C1CCCCN1 (stereo not drawn) [Cpd II] | significantly inhibited IL-13 release | significantly inhibited the release of IL-13 | significantly inhibited the proliferation of PBL stimulated with PHA in a dose-dependent manner | significantly inhibited the proliferation of PBL | significantly inhibited the proliferation of PBL | significantly inhibited IFNγ release | significantly inhibited IFNγ release | decreased IL-8 release stimulated by TNFα in a dose-dependent manner | -51.1% | 3.08% | 38.2% | 41.7% | 86.9% |  |  | 
COC(=O)C(c1ccccc1)C1CCCCN1 (stereo not drawn) [methylphenidate] | increased the release of IL-13 |  | did not significantly reduce the proliferation | did not | did not | had some effect | increased the release of IFNγ | slightly decreased IL-8 release |  |  |  | 15.2% |  | did not inhibit the release of IL-13 | showed a significant effect | did not significantly suppress the release of IFNγ
